Patent US20060235084A1, “PEG-polyacetal diblock and triblock copolymers and pharmaceutical compositions” (priority 2005, published 2006)

Test: In vitro release of paclitaxel from triblock copolymer gel into PBS release media
Format: physicochemical
Conditions: 23% by weight aqueous triblock copolymer of Example 1, paclitaxel approx. 2.0 mg/ml; PBS pH 7.4 with 2.4% Tween-80 and 4% Cremophor EL, 37° C.; HPLC
Experimental: To a 23% by weight aqueous solution of the triblock copolymer of Example 1 is added sufficient paclitaxel to provide approximately 2.0 mg/ml of drug. A 2 ml sample of this solution is put onto a watchglass and equilibrated at 37° C. Since the temperature is greater than the gelation temperature of the copolymer, a gel formed on the watchglass. The watchglass is placed in a 200 ml beaker containing release media comprised of 150 ml of PBS (pH 7.4) containing 2.4% by weight Tween-80 and 4% by weight Cremophor EL equilibrated at 37° C. The solution in the beaker was stirred, and the top of the beaker is sealed to prevent evaporation. The whole assembly was placed into an incubator at 37° C. The release study is performed in triplicate. At different time periods a 5 ml aliquot of the release media was taken and analyzed for […]. The PBS solution was replaced with fresh PBS after each aliquot removal. Samples were collected at 1, 2, 4, 8, 18, and 24 hours, and thereafter at 24 hour intervals, and analyzed by HPLC. The release profile of […] from the gel is determined. The gel formulation provides excellent control over the release of the paclitaxel for approximately 50 days.

duration of controlled release from the gel formulation: approximately 50 days
SMILES: CC(=O)O[C@H]1C(=O)[C@@]2(C)[C@H]([C@H](OC(=O)c3ccccc3)[C@]3(O)C[C@H](OC(=O)[C@H](O)[C@@H](NC(=O)c4ccccc4)c4ccccc4)C(C)=C1C3(C)C)[C@]1(OC(C)=O)CO[C@@H]1C[C@@H]2O [paclitaxel]
